From PubChem BioAssay (NCI)
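Interpolation was linear, between the two tested concentrations surrounding the appropriate level; five concentrations were tested over 48 hours in 96-well plates. The concentration for full growth arrest is given as TGI.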

Legend:
Assay in all cases: NCI anticancer screen, dose series, 48 h
786-0 renal = system: 786-0 renal
A498 renal = system: A498 renal
A549 NSCLC = system: A549 NSCLC
ACHN renal = system: ACHN renal
CAKI-1 renal = system: CAKI-1 renal
CCRF-CEM leukemia = system: CCRF-CEM leukemia
COLO 205 colon = system: COLO 205 colon
DLD-1 colon = system: DLD-1 colon
DMS 114 small cell lung = system: DMS 114 small cell lung
DMS 273 small cell lung = system: DMS 273 small cell lung
EKVX NSCLC = system: EKVX NSCLC
HCC-2998 colon = system: HCC-2998 colon
HCT-116 colon = system: HCT-116 colon
HCT-15 colon = system: HCT-15 colon
HL-60(TB) leukemia = system: HL-60(TB) leukemia
HOP-18 NSCLC = system: HOP-18 NSCLC
HOP-62 NSCLC = system: HOP-62 NSCLC
HOP-92 NSCLC = system: HOP-92 NSCLC
HT29 colon = system: HT29 colon
IGROV1 ovarian = system: IGROV1 ovarian
K-562 leukemia = system: K-562 leukemia
KM12 colon = system: KM12 colon
KM20L2 colon = system: KM20L2 colon
LOX IMVI melanoma = system: LOX IMVI melanoma
LXFL 529 NSCLC = system: LXFL 529 NSCLC
M14 melanoma = system: M14 melanoma
M19-MEL melanoma = system: M19-MEL melanoma
MALME-3M melanoma = system: MALME-3M melanoma
MOLT-4 leukemia = system: MOLT-4 leukemia
NCI-H23 lung = system: NCI-H23 lung
NCI-H460 lung = system: NCI-H460 lung
OVCAR-3 ovarian = system: OVCAR-3 ovarian
OVCAR-4 ovarian = system: OVCAR-4 ovarian
OVCAR-5 ovarian = system: OVCAR-5 ovarian
OVCAR-8 ovarian = system: OVCAR-8 ovarian
RPMI-8226 leukemia = system: RPMI-8226 leukemia
RXF 393 renal = system: RXF 393 renal
SF-268 CNS = system: SF-268 CNS
SF-295 CNS = system: SF-295 CNS
SF-539 CNS = system: SF-539 CNS
SK-MEL-2 melanoma = system: SK-MEL-2 melanoma
SK-MEL-5 melanoma = system: SK-MEL-5 melanoma
SK-OV-3 ovarian = system: SK-OV-3 ovarian
SN12C renal = system: SN12C renal
SNB-19 CNS = system: SNB-19 CNS
SNB-75 CNS = system: SNB-75 CNS
SNB-78 CNS = system: SNB-78 CNS
SW-620 colon = system: SW-620 colon
TK-10 renal = system: TK-10 renal
U251 CNS = system: U251 CNS
UACC-257 melanoma = system: UACC-257 melanoma
UACC-62 melanoma = system: UACC-62 melanoma
UO-31 renal = system: UO-31 renal
XF 498 CNS = system: XF 498 CNS
NCI-H522 lung = system: NCI-H522 lung
SK-MEL-28 melanoma = system: SK-MEL-28 melanoma

Q: Which TGI (786-0 renal) does the source give for `CC(C)(C)[Si](C)(C)OC1C(=O)C[C@H]2CCCC[C@@H]12` (some centres undefined) here?
A: > 100 µM

Q: What about the TGI (A498 renal) of the same compound?
A: > 100 µM

Q: What about the TGI (A549 NSCLC) of the same compound?
A: > 100 µM

Q: What about the TGI (ACHN renal) of the same compound?
A: > 100 µM

Q: What about the TGI (CAKI-1 renal) of the same compound?
A: > 100 µM

Q: And the TGI (CCRF-CEM leukemia)?
A: > 100 µM

Q: And the TGI (COLO 205 colon)?
A: > 100 µM

Q: What about the TGI (DLD-1 colon) of the same compound?
A: > 100 µM

Q: And the TGI (DMS 114 small cell lung)?
A: > 100 µM

Q: What about the TGI (DMS 273 small cell lung) of the same compound?
A: > 100 µM

Q: And the TGI (EKVX NSCLC)?
A: > 100 µM

Q: What about the TGI (HCC-2998 colon) of the same compound?
A: > 100 µM

Q: What about the TGI (HCT-116 colon) of the same compound?
A: > 100 µM

Q: And the TGI (HCT-15 colon)?
A: > 100 µM

Q: And the TGI (HL-60(TB) leukemia)?
A: > 100 µM

Q: What about the TGI (HOP-18 NSCLC) of the same compound?
A: > 100 µM

Q: And the TGI (HOP-62 NSCLC)?
A: > 100 µM

Q: What about the TGI (HOP-92 NSCLC) of the same compound?
A: > 100 µM

Q: And the TGI (HT29 colon)?
A: > 100 µM

Q: And the TGI (IGROV1 ovarian)?
A: > 100 µM

Q: What about the TGI (K-562 leukemia) of the same compound?
A: > 100 µM

Q: And the TGI (KM12 colon)?
A: > 100 µM

Q: And the TGI (KM20L2 colon)?
A: > 100 µM

Q: What about the TGI (LOX IMVI melanoma) of the same compound?
A: > 100 µM

Q: What about the TGI (LXFL 529 NSCLC) of the same compound?
A: > 100 µM

Q: And the TGI (M14 melanoma)?
A: > 100 µM

Q: What about the TGI (M19-MEL melanoma) of the same compound?
A: > 100 µM

Q: What about the TGI (MALME-3M melanoma) of the same compound?
A: > 100 µM

Q: What about the TGI (MOLT-4 leukemia) of the same compound?
A: > 100 µM

Q: What about the TGI (NCI-H23 lung) of the same compound?
A: > 100 µM

Q: And the TGI (NCI-H460 lung)?
A: > 100 µM

Q: And the TGI (OVCAR-3 ovarian)?
A: > 100 µM

Q: And the TGI (OVCAR-4 ovarian)?
A: > 100 µM

Q: And the TGI (OVCAR-5 ovarian)?
A: > 100 µM

Q: What about the TGI (OVCAR-8 ovarian) of the same compound?
A: > 100 µM

Q: What about the TGI (RPMI-8226 leukemia) of the same compound?
A: > 100 µM

Q: What about the TGI (RXF 393 renal) of the same compound?
A: > 100 µM

Q: And the TGI (SF-268 CNS)?
A: > 100 µM

Q: What about the TGI (SF-295 CNS) of the same compound?
A: > 100 µM

Q: And the TGI (SF-539 CNS)?
A: > 100 µM

Q: What about the TGI (SK-MEL-2 melanoma) of the same compound?
A: > 100 µM

Q: What about the TGI (SK-MEL-5 melanoma) of the same compound?
A: > 100 µM

Q: What about the TGI (SK-OV-3 ovarian) of the same compound?
A: > 100 µM

Q: What about the TGI (SN12C renal) of the same compound?
A: > 100 µM

Q: What about the TGI (SNB-19 CNS) of the same compound?
A: > 100 µM

Q: What about the TGI (SNB-75 CNS) of the same compound?
A: > 100 µM

Q: What about the TGI (SNB-78 CNS) of the same compound?
A: > 100 µM

Q: And the TGI (SW-620 colon)?
A: > 100 µM

Q: What about the TGI (TK-10 renal) of the same compound?
A: > 100 µM

Q: And the TGI (U251 CNS)?
A: > 100 µM

Q: What about the TGI (UACC-257 melanoma) of the same compound?
A: > 100 µM

Q: And the TGI (UACC-62 melanoma)?
A: > 100 µM

Q: And the TGI (UO-31 renal)?
A: > 100 µM

Q: What about the TGI (XF 498 CNS) of the same compound?
A: > 100 µM

Q: Which results are given for `COC(=O)C1=C(C(=O)OC)C2=S(SC3=C2CCCC3)S1` (centres undefined)?
A: TGI (786-0 renal): 15.2 µM; TGI (A549 NSCLC): > 100 µM; TGI (ACHN renal): > 100 µM; TGI (CAKI-1 renal): > 100 µM; TGI (CCRF-CEM leukemia): 19.7 µM; TGI (COLO 205 colon): > 100 µM; TGI (DLD-1 colon): > 100 µM; TGI (DMS 273 small cell lung): 34.2 µM; TGI (EKVX NSCLC): > 100 µM; TGI (HCC-2998 colon): > 100 µM; TGI (HCT-15 colon): 46.6 µM; TGI (HL-60(TB) leukemia): 30.9 µM; TGI (HOP-62 NSCLC): > 100 µM; TGI (HOP-92 NSCLC): 40.3 µM; TGI (HT29 colon): 87.8 µM; TGI (IGROV1 ovarian): > 100 µM; TGI (K-562 leukemia): 25.8 µM; TGI (KM12 colon): 97.6 µM; TGI (KM20L2 colon): 76.5 µM; TGI (LOX IMVI melanoma): 7.05 µM; TGI (LXFL 529 NSCLC): 30 µM; TGI (M14 melanoma): > 100 µM; TGI (M19-MEL melanoma): > 100 µM; TGI (MALME-3M melanoma): 71.1 µM; TGI (MOLT-4 leukemia): > 100 µM; TGI (NCI-H23 lung): > 100 µM; TGI (NCI-H460 lung): > 100 µM; TGI (NCI-H522 lung): 11.3 µM; TGI (OVCAR-3 ovarian): 40.1 µM; TGI (OVCAR-4 ovarian): > 100 µM; TGI (OVCAR-5 ovarian): 93.6 µM; TGI (OVCAR-8 ovarian): 39.8 µM; TGI (RPMI-8226 leukemia): 30.1 µM; TGI (RXF 393 renal): 32.3 µM; TGI (SF-268 CNS): > 100 µM; TGI (SF-295 CNS): > 100 µM; TGI (SF-539 CNS): 74 µM; TGI (SK-MEL-2 melanoma): 85.6 µM; TGI (SK-MEL-28 melanoma): > 100 µM; TGI (SK-MEL-5 melanoma): 4.71 µM; TGI (SK-OV-3 ovarian): > 100 µM; TGI (SN12C renal): > 100 µM; TGI (SNB-19 CNS): > 100 µM; TGI (SNB-75 CNS): 62.7 µM; TGI (SW-620 colon): 13 µM; TGI (TK-10 renal): > 100 µM; TGI (U251 CNS): 70.1 µM; TGI (UACC-257 melanoma): > 100 µM; TGI (UACC-62 melanoma): > 100 µM; TGI (UO-31 renal): > 100 µM
